In patent US7220727B2, “Aminoglycosides as antibiotics” (priority 2000, dated 2007):

Tests used:
[1] = tested on: E. coli JM83 (AAC6′/APH2″); experiment: MIC, microdilution broth, E. coli hyper-expressing AAC(6′)/APH(2″); format: cell-based, Escherichia coli; conditions: for antibiotic activity: E. coli hyper-expressing AAC(6′)/APH(2″)
Source text: (§1) Escherichia coli JM83 is an antibiotic-sensitive laboratory strain. E. coli JM83 (APH(3′)-I) contains high copies (500–700 copies per cell) of plasmid pUC19 with the cloned kanamycin resistance gene from transposon Tn903 that produces the type I aminoglycoside 3′-phosphotransferase. APH(3′)-I is the most common aminoglycoside phosphotransferase in gram-negative bacteria. E. coli JM83 (AAC6′/APH2″) contains a plasmid with the gene for the bifunctional aminoglycoside-modifying enzyme AAC(6′)/APH(2″), which is produced by many cocci. The enzyme is able to phosphorylate at the 2″ position and/or acetylate at the 6′ position of various aminoglycoside antibiotics to manifest resistance for the organisms that express it. Serratia marcescens ATCC 13880, Enterobacter cloacae ATCC 3047, Pseudomonas aeruginosa 66 and C43 are representative important gram-negative pathogens. Aminoglycosides by themselves or in combination with other antibiotics are often used to combat these microorganisms, especially P. aeruginosa that is often very difficult to treat. Staphylococcus aureus 3 and Enterococcus faecium 119 are representatives of the cocci. Most of these microorganisms are intrinsically resistant to aminoglycosides (poor permeability), but in combination with β-lactam antibiotics are often used to treat infections caused by these microorganisms.
(§2) The MICs of all antibiotics, including the compounds of the present invention (i.e., the compounds of formula (I)), were determined by microdilution method broth procedure. Sequential twofold dilutions of antibiotics were performed in 100 μL of Luria-Bertani (LB) broth in sterile 96-well microtiter plates. Overnight cultures of bacteria were diluted 100 times in LB broth and subgrown for several hours and 10 μL of diluted cultures were transferred into the antibiotic containing microtiter plates to bring final inoculums to 10^5 CFU/mL (CFU stands for the colony forming units). Cultures were incubated overnight at 35° C. and microtiter plates were checked from below with a reflective viewer.

[2] = tested on: Serratia marcescens ATCC 13880; experiment: MIC, microdilution broth, S. marcescens; format: cell-based
Source text: as §1, §2

[3] = tested on: Enterobacter cloacae ATCC 3047; experiment: MIC, microdilution broth, E. cloacae; format: cell-based
Source text: as §1, §2

[4] = tested on: Escherichia coli JM83; experiment: MIC, microdilution broth, E. coli JM83; format: cell-based; conditions: E. coli JM83, antibiotic-sensitive laboratory strain
Source text: as §1, with “Most of these microorganisms are intrinsically resistant to aminoglycosides (poor permeability), but in combination with β-lactam antibiotics are often used to treat infections caused by these microorganisms.” left out
(§3) The MICs of all antibiotics, including the compounds of the present invention (i.e., the compounds of formula (I)), were determined by microdilution method broth procedure. […]

[5] = tested on: Staphylococcus aureus 3; experiment: MIC, microdilution broth, S. aureus; format: cell-based; conditions: S. aureus 3
Source text: as §1, §2

[6] = tested on: E. coli JM83 (APH(3′)-I); experiment: MIC, microdilution broth, E. coli hyper-expressing APH(3′)-I; format: cell-based, Escherichia coli; conditions: for antibiotic activity / fold lower activity than tobramycin and amikacin: E. coli hyper-expressing APH(3′)-I
Source text: as §1, §2

[7] = tested on: any of the microorganisms tested; experiment: MIC, microdilution broth, whole panel of bacterial strains; format: cell-based; conditions: whole spectrum of strains
Source text: as §1, with “Most of these microorganisms are intrinsically resistant to aminoglycosides (poor permeability), but in combination with β-lactam antibiotics are often used to treat infections caused by these microorganisms.” left out
as §3

[8] = tested on: Enterococcus faecium 119; experiment: MIC, microdilution broth, E. faecium; format: cell-based; conditions: E. faecium 119, moderately resistant to aminoglycosides
Source text: as §1, with “Most of these microorganisms are intrinsically resistant to aminoglycosides (poor permeability), but in combination with β-lactam antibiotics are often used to treat infections caused by these microorganisms.” left out
as §3

[9] = tested on: Pseudomonas aeruginosa 66 and C43; experiment: MIC, microdilution broth, P. aeruginosa; format: cell-based
Source text: as §1, §2

[10] = tested on: F-AS; experiment: Binding to A-site rRNA template; conditions: specific assay conditions; compared with compound 4 for F-AS

Molecule: 6-O-[2-N-(3-Propylamino)ethylamino]neamine [Compound 6]
- antibiotic activity [1]: not active
- antibiotic activity [2]: demonstrates activity
- antibiotic activity [3]: demonstrates activity
- antibiotic activity [4]: demonstrates activity
- antibiotic activity [5]: demonstrates activity
- antibiotic activity [6]: not active
- overall antibiotic activity [7]: lower activity than compound 3

Molecule: NCCNCCOC1C(NC(=O)[C@@H](O)CCN)CC(N)C(O[C@H]2O[C@H](CN)[C@@H](O)[C@H](O)[C@H]2N)C1O (stereo partly drawn) [Compound 3, 1-N-[(S)-4-Amino-2-hydroxybutanoyl]-6-O-[2-N-(2-ethylamino)ethylamino]neamine]
- MIC values relative to compounds 4 and 5 [7]: approximately four-fold higher

Molecule: NCCCNCCOC1C(NC(=O)[C@@H](O)CCN)CC(N)C(O[C@H]2O[C@H](CN)[C@@H](O)[C@H](O)[C@H]2N)C1O (stereo partly drawn) [Compound 4, 1-N-[(S)-4-Amino-2-hydroxybutanoyl]-6-O-[2-N-(3-propylamino)ethylamino]neamine]
- antibiotic activity [1]: good activity
- antibiotic activity [8]: good activities
- antibiotic activity [2]: excellent activities
- antibiotic activity [9]: excellent activities
- antibiotic activity [3]: excellent activities
- antibiotic activity [5]: good activities
- antibiotic activity [6]: good activity
- fold lower activity than tobramycin and amikacin [6]: 8 fold

Molecule: NCCCCNCCOC1C(NC(=O)[C@@H](O)CCN)CC(N)C(O[C@H]2O[C@H](CN)[C@@H](O)[C@H](O)[C@H]2N)C1O (stereo partly drawn) [Compound 5, 1-N-[(S)-4-Amino-2-hydroxybutanoyl]-6-O-[2-N-(4-butylamino)ethylamino]neamine]
- antibiotic activity [1]: good activity
- antibiotic activity [8]: good activities
- antibiotic activity [2]: excellent activities
- antibiotic activity [9]: excellent activities
- binding to RNA [10]: comparable binding affinity
- antibiotic activity [3]: excellent activities
- antibiotic activity [5]: good activities
- antibiotic activity [6]: good activity
- fold lower activity than tobramycin and amikacin [6]: 8 fold

Molecule: NCCCN(CCOC1C(NC(=O)[C@@H](O)CCN)CC(N)C(O[C@H]2O[C@H](CN)[C@@H](O)[C@H](O)[C@H]2N)C1O)C(=O)[C@@H](O)CCN (stereo partly drawn) [Compound 7, 1-N,6-O-(2-N)-Bis[(S)-4-amino-2-hydroxybutanoyl]-6-O-[2-N-(3-propylamino)ethylamino]neamine]
- antibiotic activity [1]: moderate activity
- MIC ([1]; E. coli strain producing AAC(6′)/APH(2″)): 32 mg/L
- antibiotic activity [2]: moderate activity
- antibiotic activity [9]: moderate activity
- antibiotic activity [3]: moderate activity
- antibiotic activity [6]: moderate activity
- MIC ([6]; E. coli strain producing APH(3′)-I): 64 mg/L

Molecule: NCCCCNCCOC1C(NC(=O)Cc2ccc(N)cc2)CC(N)C(O[C@H]2O[C@H](CN)[C@@H](O)[C@H](O)[C@H]2N)C1O (stereo partly shown) [Compound 8, 1-N-[4-Aminophenylethanoyl]-6-O-[2-N-(4-butylamino)ethylamino]neamine]
- binding to RNA [10]: do bind to the RNA

Molecule: NCCCCNCCOC1C(NC(=O)Cc2cccc(N)c2)CC(N)C(O[C@H]2O[C@H](CN)[C@@H](O)[C@H](O)[C@H]2N)C1O (stereo partly shown) [Compound 9, 1-N-[3-Aminophenylethanoyl]-6-O-[2-N-(4-butylamino)ethylamino]neamine]
- binding to RNA [10]: do bind to the RNA
